{
  "source": "BigSolDB 2.1",
  "data": [
    {"smiles": "CO[C@H]1/C=C/O[C@@]2(C)Oc3c(C)c(O)c4c(O)c(c(/C=N/N5CCN(C6CCCC6)CC5)c(O)c4c3C2=O)NC(=O)/C(C)=C\\C=C\\[C@H](C)[C@H](O)[C@@H](C)[C@@H](O)[C@@H](C)[C@H](OC(C)=O)[C@@H]1C", "values": [
      {"measurement": "solubility (mole fraction)", "setting": "in acetone, 278.15 K", "result": 0.000523},
      {"measurement": "solubility (mole fraction)", "setting": "in acetone, 283.15 K", "result": 0.00053},
      {"measurement": "solubility (mole fraction)", "setting": "in acetone, 288.15 K", "result": 0.000536},
      {"measurement": "solubility (mole fraction)", "setting": "in acetone, 293.15 K", "result": 0.000549},
      {"measurement": "solubility (mole fraction)", "setting": "in acetone, 297.15 K", "result": 0.000563},
      {"measurement": "solubility (mole fraction)", "setting": "in acetone, 303.15 K", "result": 0.000576},
      {"measurement": "solubility (mole fraction)", "setting": "in acetone, 308.15 K", "result": 0.000609},
      {"measurement": "solubility (mole fraction)", "setting": "in acetone, 313.15 K", "result": 0.000635},
      {"measurement": "solubility (mole fraction)", "setting": "in acetone, 318.15 K", "result": 0.000668},
      {"measurement": "solubility (mole fraction)", "setting": "in acetone, 323.15 K", "result": 0.000701},
      {"measurement": "solubility (mole fraction)", "setting": "in chloroform, 278.15 K", "result": 0.0254},
      {"measurement": "solubility (mole fraction)", "setting": "in chloroform, 283.15 K", "result": 0.0265},
      {"measurement": "solubility (mole fraction)", "setting": "in chloroform, 288.15 K", "result": 0.0281},
      {"measurement": "solubility (mole fraction)", "setting": "in chloroform, 293.15 K", "result": 0.0287},
      {"measurement": "solubility (mole fraction)", "setting": "in chloroform, 297.15 K", "result": 0.0293},
      {"measurement": "solubility (mole fraction)", "setting": "in chloroform, 303.15 K", "result": 0.0299},
      {"measurement": "solubility (mole fraction)", "setting": "in chloroform, 308.15 K", "result": 0.0308},
      {"measurement": "solubility (mole fraction)", "setting": "in chloroform, 313.15 K", "result": 0.0316},
      {"measurement": "solubility (mole fraction)", "setting": "in chloroform, 318.15 K", "result": 0.0326},
      {"measurement": "solubility (mole fraction)", "setting": "in chloroform, 323.15 K", "result": 0.0334},
      {"measurement": "solubility (mole fraction)", "setting": "in dichloromethane, 278.15 K", "result": 0.0159},
      {"measurement": "solubility (mole fraction)", "setting": "in dichloromethane, 283.15 K", "result": 0.0165},
      {"measurement": "solubility (mole fraction)", "setting": "in dichloromethane, 288.15 K", "result": 0.0175},
      {"measurement": "solubility (mole fraction)", "setting": "in dichloromethane, 293.15 K", "result": 0.0184},
      {"measurement": "solubility (mole fraction)", "setting": "in dichloromethane, 297.15 K", "result": 0.0196},
      {"measurement": "solubility (mole fraction)", "setting": "in dichloromethane, 303.15 K", "result": 0.0209},
      {"measurement": "solubility (mole fraction)", "setting": "in dichloromethane, 308.15 K", "result": 0.0224},
      {"measurement": "solubility (mole fraction)", "setting": "in ethanol, 278.15 K", "result": 0.000515},
      {"measurement": "solubility (mole fraction)", "setting": "in ethanol, 283.15 K", "result": 0.000525},
      {"measurement": "solubility (mole fraction)", "setting": "in ethanol, 288.15 K", "result": 0.000541},
      {"measurement": "solubility (mole fraction)", "setting": "in ethanol, 293.15 K", "result": 0.000562},
      {"measurement": "solubility (mole fraction)", "setting": "in ethanol, 297.15 K", "result": 0.000583},
      {"measurement": "solubility (mole fraction)", "setting": "in ethanol, 303.15 K", "result": 0.000604},
      {"measurement": "solubility (mole fraction)", "setting": "in ethanol, 308.15 K", "result": 0.000625},
      {"measurement": "solubility (mole fraction)", "setting": "in ethanol, 313.15 K", "result": 0.000651},
      {"measurement": "solubility (mole fraction)", "setting": "in ethanol, 318.15 K", "result": 0.000677},
      {"measurement": "solubility (mole fraction)", "setting": "in ethanol, 323.15 K", "result": 0.000703},
      {"measurement": "solubility (mole fraction)", "setting": "in methanol, 278.15 K", "result": 0.022},
      {"measurement": "solubility (mole fraction)", "setting": "in methanol, 283.15 K", "result": 0.0224},
      {"measurement": "solubility (mole fraction)", "setting": "in methanol, 288.15 K", "result": 0.0229},
      {"measurement": "solubility (mole fraction)", "setting": "in methanol, 293.15 K", "result": 0.0235},
      {"measurement": "solubility (mole fraction)", "setting": "in methanol, 297.15 K", "result": 0.0242},
      {"measurement": "solubility (mole fraction)", "setting": "in methanol, 303.15 K", "result": 0.0249},
      {"measurement": "solubility (mole fraction)", "setting": "in methanol, 308.15 K", "result": 0.0257},
      {"measurement": "solubility (mole fraction)", "setting": "in methanol, 313.15 K", "result": 0.0267},
      {"measurement": "solubility (mole fraction)", "setting": "in methanol, 318.15 K", "result": 0.0278},
      {"measurement": "solubility (mole fraction)", "setting": "in methanol, 323.15 K", "result": 0.029}
    ]}
  ]
}
